From PMC11504387, “Synthesis and Biological Activity Assessment of 2-Styrylbenzothiazoles as Potential Multifunctional Therapeutic Agents” (Antioxidants, 2024)
One block for each compound: values may come before it.

What was measured:
skin HaCat keratinocytes = assay: Cell growth inhibition assay, HaCat; assay type: cell-based, human; conditions: 24 h incubation; mean ± SD
Procedure: Cell growth inhibition analyses were performed on human melanoma Colo38 cells and skin HaCat keratinocytes. Human melanoma Colo38 cells were kindly given by Dr. Patrizio Giacomini (Laboratory of Immunology, Regina Elena Institute, Rome, Italy). HaCat cells were obtained from Istituto Zooprofilattico Sperimentale della Lombardia e dell’Emilia-Romagna, Brescia, Italy. Cells were seeded at 40,000 cells/mL and 25,000 cells/mL, respectively. Colo38 cells were maintained in RPMI 1640, supplemented with 10% foetal bovine serum (FBS), penicillin (100 Units/mL), and streptomycin (100 µg/mL). HaCat cells were maintained in DMEM, supplemented with 10% fatal bovine serum (FBS), penicillin (100 Units/mL), streptomycin (100 µg/mL) and glutamine (2 mM); the incubation was performed at 37 °C in a 5% CO2 atmosphere. Compounds were dissolved in DMSO to obtain 50 mM stock solutions and diluted before cell treatment in MeOH. The tested compounds were added at serial dilutions to the cell cultures (from 0.1 to 100 µM) and incubated for 24 h further. Cells were then harvested, suspended in physiological solution, and counted with a Z2 Coulter Counter (Coulter Electronics, Hialeah, FL, USA). The number of cells/mL and the IC50 values were determined when untreated cells were in the log phase of cell growth. Samples of vehicles and untreated cells were included in each plate. Cisplatin was used as positive control for the HaCat cells, while N1-(4-arylidene)-1H-(2-OH-4-N(Et)2-phenyl)-[d]imidazole-2-carbohydrazide was used as positive control for the Colo38 cell line.

[1] = Ferric reducing antioxidant power (FRAP) test; assay type: biochemical; conditions: Trolox equivalents; mean ± SD
Procedure: The FRAP test, based on a colorimetric reaction, can assess the ability of a sample to reduce ferric ions to ferrous ions when complexed with 2,4,6-trispiridyl-s-triazine (TPTZ). The FRAP solution consisted of 0.1 M acetate buffer (pH 3.6), 10 mmol/L of TPTZ in 40 mM HCl and a 20 mM solution of FeCl3, in a 10:1:1 ratio. A 1.9 mL volume of the FRAP solution was incubated with 0.1 mL of the sample solution at 37 °C for 10 min. The absorbance was then read with a UV-Vis spectrophotometer at a wavelength of 593 nm, which corresponds to the maximum absorbance peak of the Fe^2+-TPTZ complex. Trolox® was used as a standard, and ferulic acid was used as positive control, and the results are expressed as µmol TE/g.

ORAC assay = assay type: biochemical; conditions: Trolox equivalents; mean ± SD
Procedure: The ORAC assay was performed based on the previously modified Hong procedure. The sodium salt of fluorescein (85 nM) was used as a target for free radical attack with 2,2′-azobis(2-amidinopropane) dichloride (AAPH) as a peroxyl radical generator in the final assay mixture (total volume of 0.2 mL). The test involves a calibration curve of Trolox (standard control) with different concentrations (40 to 240 μM). The compounds tested were first dissolved in DMSO:MeOH and then diluted in phosphate buffer solution pH 7.4. Fluorescence measurements were performed at 37 °C and recorded at 5-min intervals up to 30 min after the addition of AAPH. ORAC values were calculated as the difference in areas under the fluorescein quenching curves between the blank and the sample and were expressed as µmol Trolox equivalents (TE) per gram of dried sample.

[2] = DPPH radical scavenging activity; assay type: biochemical; conditions: values in brackets; mean ± SD
Procedure: For all the compounds, 0.750 mL of a DMSO-MeOH solution mixed with 1.5 mL of DPPH solution (0.004%) in MeOH was analysed. The samples were kept in the dark at room temperature for 30 min and then analysed with a spectrophotometer by reading the absorbance at 517 nm (lambda max of the absorption spectrum of the DPPH radical). Equation (5) was used to obtain the percentage inhibition (%) of the radical: DPPH radical-scavenging capacity (%) = [1 − (A1 − A2)/A0] × 100%(5) where A2 is the blank (MeOH), and A1 and A0 are, respectively, the recorded absorbances of the sample and control (0.750 MeOH and 1.5 mL DPPH solution), directly proportional to the concentration of residual DPPH. An initial screening was performed by testing all compounds at a concentration of 1 mg/mL (Trolox® was used as the standard); subsequently, compounds showing >90% radical inhibition were further tested to calculate their IC50 value (expressed in µg/mL). Ferulic acid was used as positive control. A linear regression was performed to calculate the sample concentration able to eliminate 50% of DPPH free radicals.

primary human monocytes = assay: Lipid mediator (LM) formation in primary human monocytes; assay type: cell-based; conditions: diclofenac 1 µM; A23187 2.5 µM, 30 min
From the text: Monocytes and polymorphonuclear leukocytes (PMNL) were freshly isolated from human blood. Human blood and leukocyte concentrates were provided by the Institute for Transfusion Medicine of the University Hospital Jena (Thuringia, Germany). The protocols for experiments with human blood and blood cells were approved by the ethical commission of the Friedrich Schiller University of Jena. Following blood density centrifugation and separation of cell populations, peripheral blood mononuclear cells (PBMC) were left to adhere for 1 h to cell culture flasks (monocyte-enriched PBMC). Non-adherent cells were washed off from the adherent monocytes, before pre-incubating monocytes (5 × 10^6 cells/mL) with the test compounds for 10 min at 37 °C. LM formation was elicited with A23187 (2.5 µM) and CaCl2 (1 mM) over 30 min. The reaction was stopped with 1 mL of ice-cold methanol containing 10 µL of deuterium-labelled internal LM standards (200 nM d8-5S-HETE, d4-LTB4, d5-LXA4, d5-RvD2, d4-PGE2 and 10 µM d8-AA). LMs were extracted using Sep-Pak C18 35 cc Vac Cartridges (Waters, Milford, MA, USA) and analysed by UPLC-MS/MS as described by Pein et al..
The ability to modulate LM formation was screened in primary human monocytes expressing the enzymes required for PGE2, LTB4, and 12-HETE production (Figure 2A). Cells were pre-treated with the test compounds BZTst1–6 (10 µM) or the reference COX inhibitor diclofenac (1 µM) for 10 min prior to stimulation with the calcium ionophore A23187 (2.5 µM) for 30 min.

Structure (SMILES): N.N.[Cl][Pt][Cl] [Cisplatin, reference compound]
IC50 (skin HaCat keratinocytes): 2000 ± 400 nM

DPPH IC50 (sample concentration able to scavenge 50% of the DPPH radical) [2]: (9.90 ± 0.70) µg/mL
Structure (SMILES): COc1cc(/C=C/C(=O)O)ccc1O [Ferulic Acid, reference compound]
FRAP [1]: 6872.60 ± 10.70 µmolTE/g
ORAC (ORAC assay): 15,906.40 ± 14.20 µmolTE/g

Structure (SMILES): O=C(O)Cc1ccccc1Nc1c(Cl)cccc1Cl [diclofenac, reference compound]
PGE2 formation (primary human monocytes): significantly downregulated
